Paper PMC10498496, “Design and Synthesis of Poly(2,2′-Bipyridyl) Ligands for Induction of Cell Death in Cancer Cells: Control of Anticancer Activity by Complexation/Decomplexation with Biorelevant Metal Cations” (Inorganic Chemistry, 2023)
Like-named read-outs stand apart in the source and are kept apart here. Numbered stars: 1 amine (or outer) side, 2 acyl side, 3 side chain; on linkers, the order of the positions; unused ones are H or OH. Bridge positions count the residues as written; N and C are the ends. Square brackets hold non-standard residues; d marks the D form. Peptide text beside a SMILES is read from it. I, II: the chains in the order shown. Actinocin(9to1) = Cc1c2oc3c(C)ccc(C(=O)[*:1])c3nc-2c(C(=O)[*:2])c(N)c1=O; NMeV = CN[C@H](C(=O)O)C(C)C; Sar = CNCC(=O)O

Tests used:
[1] = test system: Jurkat cells; test: MTT assay of Jurkat cells, effect of metal ions and incubation time on cytotoxicity of ligands; format: cell-based, human
Experimental: Next, we examined the effect of complexation of 1, 2, BAPTA, and BAPTA-AM with metal ions such as Cu(NO3)2, Zn(NO3)2, FeSO4, Co(NO3)2, and NiSO4 on their cytotoxicity against Jurkat cells. Mixture of ligands and metal ions were incubated for 1 h at 37 °C, and added to Jurkat cells for incubation for 12, 24, and 48 h at [ligand] = 0.78–25 μM and [M^2+] = 1.71–37.5 μM ([ligand]: [M^2+] = 1:1.5). After that, MTT assays were carried out, as shown in Figure S3 of the Supporting Information.
(§1) IMR-90 cells in DMEM medium with 10% FBS (1.5 × 10^5 cells/mL) were seeded in to 96 well plates and incubated for 24 h at 37 °C, MTT assays with poly(bpy) ligands and their metal complexes (0–100 μM), cisplatin (0–100 μM), and actinomycin D (0–10 μM) were performed following the same procedure described above. These experiments were carried out at least three times. • (b) MTT assay in the presence of a caspase inhibitor. Jurkat cells were pre-treated with Z-VAD-fmk (15 μM) for 3 h, a general caspases inhibitor, followed by the treatment with 1 (1 μM), BABTA-AM (12.5 μM) and cisplatin (50 μM), respectively, for 24 h, and then MTT assay was carried out as described above. • (c) For evaluation of the effect of metal ions on the cytotoxicity of 1, 2, BAPTA, and BAPTA-AM, these ligands were incubated with metal ions such as Cu(NO3)2, Zn(NO3)2, FeSO4, Co(NO3)2, and NiSO4 for 1 h, respectively, and added to Jurkat cells. The whole mixtures were incubated for 12, 24, and 48 h at [ligand] = 0.78–25 μM and at [M^2+] = 1.71–37.5 μM ([ligand]/[M^2+] = 1:1.5). The MTT assays were conducted as described above.

[2] = test system: Jurkat cells; test: MTT assay, cytotoxicity against Jurkat cells; format: cell-based, human; details: Homo sapiens, Jurkat
Experimental: (§2) Second, we conducted the quantitative evaluation of the cytotoxicity of 1, 2, and 3 against various cancer cell lines by an MTT (3-(4,5-dimethylthiazol-2-yl)-2,5-diphenyltetrazolium bromide) assay. Jurkat, MOLT-4 (these two cell lines are human T-lymphocyte leukemia cells), and U937 (human lymphoma) cells (1.5 × 10^4 cells/well) were incubated in RPMI 1640 medium containing 10% FBS (fetal bovine serum) containing 1, 2, and 3 (0–25 μM) at 37 °C for 24 h, and then treated with the MTT reagent. A549 (human alveolar adenocarcinoma) and IMR-90 (normal human fetal lung fibroblast as model of normal cells) cells (1.5 × 10^4 cells/well) were incubated in DMEM (low glucose) with 10% FBS containing 1, 2, and 3 (0–25 μM), HeLa S3 (human epithelial carcinoma cells) cells (1.5 × 10^4 cells/well) were incubated in MEM with 10% FBS containing these ligands (0–25 μM) for 24 h at 37 °C and then treated with the MTT reagent.
(§3) • (a) Cytotoxic study. Jurkat cells, MOLT-4 cells, and U937 cells (1.5 × 10^5 cells/mL per one well) were incubated in 10% FBS RPMI 1640 medium containing 1 (0–25 μM), 2 (0–25 μM) , 3, cisplatin (0–100 μM), and actinomycin D (0–10 μM) under 5% CO2 at 37 °C for 24 h on 96 well plates (Watson), 0.5% MTT (3-(4,5-dimethyl-2-thiazolyl)-2,5-diphenyl-2H-tetrazolium bromide) reagent in PBS (10 μL) was then added to the cells. After incubation at 37 °C for 4 h, a formazan lysis solution (10% SDS in 0.01 N HCl) (100 μL) was added and the resulting solution was incubated overnight under the same conditions, followed by the measurement of absorbance at 570 nm with a microplate reader (BIO-RAD).

[3] = test system: IMR-90 cells; test: MTT assay, cytotoxicity against IMR-90 cells (model of normal cells); format: cell-based, human; details: Homo sapiens, read-out: EC50 against IMR-90
Experimental: as §2, §1

[4] = test system: A549 cells; test: MTT assay, cytotoxicity against A549 cells; format: cell-based, human; details: Homo sapiens, A549, 37 °C, treated for 24 h
Experimental: as §2
(§4) HeLa S3 cells and A549 cells in MEM and DMEM medium with 10% FBS (1.5 × 10^5 cells/mL per one well) were seeded in to 96 well plates and incubated for 24 h, MTT assay of poly(bpy) ligands (0–25 μM), cisplatin (0–100 μM), and actinomycin D (0–10 μM) was performed according to the same procedure described above.

[5] = test system: U937 cells; test: MTT assay, cytotoxicity against U937 cells; format: cell-based, human; details: Homo sapiens, read-out: EC50 against U937
Experimental: as §2, §3

[6] = test system: HeLa S3 cells; test: MTT assay, cytotoxicity against HeLa S3 cells; format: cell-based, human; details: Homo sapiens
Experimental: Second, we conducted the quantitative evaluation of the cytotoxicity of 1, 2, and 3 against various cancer cell lines by an MTT (3-(4,5-dimethylthiazol-2-yl)-2,5-diphenyltetrazolium bromide) assay. Jurkat, MOLT-4 (these two cell lines are human T-lymphocyte leukemia cells), and U937 (human lymphoma) cells (1.5 × 10^4 cells/well) were incubated in RPMI 1640 medium containing 10% FBS (fetal bovine serum) containing 1, 2, and 3 (0–25 μM) at 37 °C for 24 h, and then treated with the MTT reagent. […]
as §4

[7] = test system: MOLT-4 cells; test: MTT assay, cytotoxicity against MOLT-4 cells; format: cell-based, human; details: Homo sapiens, read-out: EC50 against MOLT-4
Experimental: as §2, §3

[8] = test system: MOLT-4 cells; parameters: method as in earlier work; details: ref 52 (Morita et al., Oncotarget 2013); read-out: EC50, cytotoxicity against MOLT-4 cells; cited from earlier work
[9] = test system: Jurkat cells; test: MTT assay in the presence of the caspase inhibitor Z-VAD-fmk; format: cell-based, human; details: Z-VAD-fmk 15 μM 3 h, then compound 12.5 μM for 24 h
Text: We, therefore, selected Jurkat cells to study the cell death mechanism in detail, in this work. Programmed cell death (PCD) is generally classified into several types such as apoptosis, necroptosis, paraptosis, autophagic cell death, and so on.[30]−[33] We hypothesized that 1 and 2 function as inducers of apoptosis, which is a type of PCD in cancer cells, based on the morphological change of Jurkat cells observed in Figure 1 and mechanism of chelation therapy proposed in the previous studies.[11]−[19] It is known that the caspases family are cysteine proteases that play important roles in apoptosis and necroptosis.[38] Therefore, the effect of Z-VAD-fmk, which is known as one of general caspase inhibitors, on the cell death induced by 1 and cisplatin was examined.
Figure 3 Effect of Z-VAD-fmk on the cell death in Jurkat cells induced by 1. Jurkat cells were incubated in RPMI in the presence of Z-VAD-fmk (15 μM) for 3 h and then treated with (a) 1 (1 μM) and (b) cisplatin (50 μM) for 24 h. Asterisks indicate significant difference with *(P ≤ 0.05).
To investigate the mechanism responsible for the BAPTA-AM-induced cell death in Jurkat cells, Jurkat cells were incubated with Z-VAD-fmk (15 μM) for 3 h, and then cells were treated with BAPTA-AM (12.5 μM) for 24 h followed by an MTT assay.
IMR-90 cells in DMEM medium with 10% FBS (1.5 × 10^5 cells/mL) were seeded in to 96 well plates and incubated for 24 h at 37 °C, MTT assays with poly(bpy) ligands and their metal complexes (0–100 μM), cisplatin (0–100 μM), and actinomycin D (0–10 μM) were performed following the same procedure described above. These experiments were carried out at least three times. • (b) MTT assay in the presence of a caspase inhibitor. […]

[10] = MTT, 37 °C, treated for 24 h, read-out: EC50 against Jurkat (converted)
[11] = Homo sapiens, Jurkat, no metal, incubation 48 h (Figure 9, S4), read-out: EC50 against Jurkat cells, metal-free ligand
[12] = IMR-90, MTT, 37 °C, treated for 24 h
[13] = U-937, MTT, 37 °C, treated for 24 h
[14] = HeLa S3, MTT, 37 °C, treated for 24 h, read-out: EC50 against HeLa S3 (converted)
[15] = MOLT-4, MTT, 37 °C, treated for 24 h

SMILES | EC50 [2, 10] | EC50 [1, 11] | EC50 [3, 12] | EC50 [4] | EC50 [5, 13] | melting point | EC50 [6, 14] | EC50 [7, 15] | other results
O=[N+]([O-])[O-].O=[N+]([O-])[O-].[Co+2] [Co^2+, Co(NO3)2] | – | – | – | – | – | – | – | – | EC50 ([1]; no ligand, incubation 48 h (Figure 9a), read-out: EC50 of ligand-free metal ion against Jurkat cells): 13 µM
c1ccc(-c2ccc(OCc3cccc(COc4ccc(-c5ccccn5)nc4)c3)cn2)nc1 [compound 2, 1,3-Bis(([2,2′-Bipyridin]-5-yloxy)methyl)benzene] | 0.77 ± 0.56 µM | ~0.1 µM | > 100 µM | 9.5 ± 1.2 µM | 0.59 ± 0.33 µM | 135 to 136 °C | 15 ± 1.34 µM | 0.64 ± 0.55 µM | EC50 ([1]; Homo sapiens, Jurkat, no metal, incubation 12 h (Figure 9), read-out: EC50 against Jurkat cells, metal-free ligand): ~2 µM
c1ccc(CN(CCN(Cc2ccccn2)Cc2ccccn2)Cc2ccccn2)nc1 [TPEN, N,N,N′,N′-tetra(2-pyrydylmethyl)ethylene diamine] | – | – | – | – | – | – | – | – | EC50 [8]: ~8 µM
c1ccc(COc2ccc(-c3ccccn3)nc2)cc1 [compound 3, 5-(Benzyloxy)-2,2′-bipyridine] | 13 ± 0.34 µM | – | 75 ± 0.1 µM | 11 ± 0.55 µM | 5.6 ± 0.77 µM | 85 to 87 °C | 15 ± 0.37 µM | 8.7 ± 0.89 µM | –
CC(=O)OCOC(=O)CN(CC(=O)OCOC(C)=O)c1ccccc1OCCOc1ccccc1N(CC(=O)OCOC(C)=O)CC(=O)OCOC(C)=O [BAPTA-AM, reference compound] | 8.6 ± 0.3 µM | 7.9 µM | > 50 µM | > 50 µM | 7.1 ± 0.4 µM | – | > 50 µM | 13.2 ± 0.2 µM | EC50 ([1]; Homo sapiens, Jurkat, no metal, incubation 24 h (Figure S4), read-out: EC50 against Jurkat cells, ligand alone): 8.6 µM; cell viability of Jurkat cells after preincubation with Z-VAD-fmk [9]: considerably restored
Cc1c2oc3c(C)ccc(C(=O)N[C@@H]4C(=O)N[C@H](C(C)C)C(=O)N5CCC[C@H]5C(=O)N(C)CC(=O)N(C)[C@@H](C(C)C)C(=O)O[C@@H]4C)c3nc-2c(C(=O)N[C@@H]2C(=O)N[C@H](C(C)C)C(=O)N3CCC[C@H]3C(=O)N(C)CC(=O)N(C)[C@@H](C(C)C)C(=O)O[C@@H]2C)c(N)c1=O [actinomycin D, reference compound] (I: T[dV]P[Sar][NMeV] / II: T[dV]P[Sar][NMeV]; ester I:1-I:C, II:1-II:C; linker I:N-II:N via Actinocin(9to1)) | – | – | – | – | – | – | – | – | EC50 ([2]; 24 h, read-out: EC50 against Jurkat): 0.005 µM; EC50 ([3]; IMR-90, 24 h): 53 ± 2.6 µM; EC50 ([5]; U-937, 24 h): 0.051 µM; EC50 ([6]; HeLa S3, 24 h, read-out: EC50 against HeLa S3): > 10 µM; EC50 ([7]; MOLT-4, 24 h): 0.003 µM
